Where “and” joins values, the source holds several entries; their conditions need not be identical. Identical values can stand only once.

Data on 3 compounds can be found in patent publication US8278054B2, “Diagnosis of metal allergy through cytokine release by T-cells in vitro” (Mabtech AB, priority 2001, dated 2012).

Data set [1] concerns ACD patients and control individuals. Description: Epicutaneous patch test. Particulars: 48 h. The format is in vivo, human. On the procedure:
Prior to the patch testing of the control group, blood samples for ELISpot analysis were taken to avoid an impact of the patch test on the ELISpot analysis. Epicutaneous patch tests using 5% NiSO4 in petrolatum was applied for 48 h whereafter the reaction, sites were inspected. […] All ACD patients were selected based on previous patch tests giving scores of 2+ or 3+ having 3+ as the highest score.
Prior to the patch testing of the control group, blood samples for ELISpot analysis were taken to avoid an impact of the patch test on the ELISpot analysis. Epicutaneous patch tests were applied for 48 h whereafter the reaction sites were inspected. […] This patient also gave a negative result in the ELISpot assay (see Table 2).

In data set [2] the test system is IL-4 producing PBMC. The data set is described as follows: IL-4 ELISpot assay. The format is cell-based, human. The following applies: for IL-4 producing cells/200 000 PBMC after stimulation with 50 μM NiCl2 / IL-4 producing cells/200 000 PBMC, 50-0 / IL-4 producing cells/200 000 PBMC after stimulation with 100 μM NiCl2 / IL-4 producing cells/200 000 PBMC, 100-0: one line per subject; for IL-4 producing cells/200 000 PBMC, 50-0: 50 μM NiCl2 after subtraction of spontaneous spots; for IL-4 producing cells/200 000 PBMC, 100-0: 100 μM NiCl2 after subtraction of spontaneous spots. An excerpt:
(§1) Blood from ACD patients or control individuals were obtained by venipuncture and collected in sterile heparinised glass vials. Peripheral blood mononuclear cells (PBMC) were separated by density gradient centrifugation over Ficoll-Hypaque. After separation, PBMC were washed twice in medium (RPMI 1640 containing glutamin, Hepes, Penicillin/Streptomycin and 10% fetal calf serum (FCS)) and used fresh for experiments. Alternatively, PBMC were frozen in 90% FCS and 10% dimethylsulfoxide and kept in liquid nitrogen until tested. Prior to being tested, frozen cells were thawed at 37° C. and medium was added dropwise whereafter the cells were washed twice with medium.
(§2) The PBMC were stimulated with various concentrations of NiCl2 and both proliferative responses and cytokine responses were analysed. NiCl2 at a stock concentration of 50 mM was mixed with medium and incubated for more than five minutes before being added to cells. PBMC diluted to a cell concentration of 4-6×10^6 cells/ml were mixed with an equal volume of NiCl2 diluted in medium resulting in a final concentration of 2×10^6 cells/ml and NiCl2 at concentrations ranging from 10-100 μM. The cell suspensions were incubated in plastic vials for 4 h at 37° C. in a humidified incubator. In parallel with incubating PBMC with NiCl2, PBMC at the same concentration were incubated with mitogen (1 μg phytohemagglutinin (PHA)/ml), control antigens (10 μg tetanus toxoid (TT) or purified protein derivative (PPD)/ml) or in the absence of stimuli.
Matched pairs of monoclonal antibodies (mAb) to human IL-4, IL-5 or IL-13 were used for the ELISpot assays (Mabtech AB, Stockholm, Sweden). For each pair, one mAb was used as a capture mAb: 82.4 (IL-4), TRFK5 (IL-5) and IL13-I (IL-13) and the other for detection, 12.1 (IL-4), 5A10 (IL-5) and IL13-II (IL-13). MAbs used for detection were biotinylated.
Ninetysix-well plates with polyvinylidene difluoride membranes (MAIPS45-10, Millipore) were treated with 100 μl of 70% EtOH for 2-10 min followed by six washes with 200 μl sterile deionized H2O. To each well, 100 μl of capture mAb at a concentration of 15 μg/ml in phosphate-buffered saline (PBS) was added and incubated over night at +4° C. The plates were washed three times with 200 μl or sterile PBS and three times with 200 μl medium containing 2% FCS. PBMC incubated for 4 h with or without stimuli in test tubes were suspended and 100 μl cell suspension (2×10^5 cells) was added to each well. After an additional incubation of 44 h, the wells were emptied and washed six times with 200 μl PBS. Biotinylated detection mAb at 1 μg/ml in PBS containing 0.5% FCS was added at a volume of 100 μl and incubated for 2 h at room temperature whereafter the wells were washed six times with PBS. Subsequently, 100 μl of SA-ALP (Streptavidin-Alkaline phosphatase, Mabtech) at 50 ng/ml in PBS with 0.5% FCS was added to each well and incubated for 1 h followed by washing in PBS six times before developing the wells with 100 μl nitroblue tetraxolium (NBT)/5-bromo-4-chloro-3-indolyl phosphate (BCIP) substrate (Sigma) for approximately 1 h. After rinsing the plates with tap water, the plates were dried and spots were counted using a light microscope.
(§3) Matched pairs of monoclonal antibodies (mAb) to human IL-4, IL-5, IL-13 or IFN-γ were used for ELISpot assays (Mabtech AB, Stockholm, Sweden). As in Example 4 above, for each pair, one mAb was used as a capture mAb and the other for detection. MAbs used for detection were biotinylated.
Ninetysix-well plates with polyvinylidene difluoride membranes (MAIPS45-10, Millipore) were treated with 100 μl of 70% EtOH for 2-10 min followed by six washes with 200 μl sterile deionized H2O. To each well, 100 μl of capture mAb at a concentration of 15 μg/ml in phosphate-buffered saline (PBS) was added and incubated over night at +4° C. The plates were washed three times with 200 μl or sterile PBS and three times with 200 μl medium containing 2% FCS. […]

Data set [3] concerns IL-5 producing PBMC. The data set is described as follows: IL-5 ELISpot assay. The format is cell-based, human. The following applies: for IL-5 production in response to NiCl2 (ELISpot): 50 μM NiCl2, FIG. 1.
Excerpt: as §1, §2
(§4) Matched pairs of monoclonal antibodies (mAb) to human IL-4, IL-5 or IL-13 were used for the ELISpot assays (Mabtech AB, Stockholm, Sweden). […]
(§5) Ninetysix-well plates with polyvinylidene difluoride membranes (MAIPS45-10, Millipore) were treated with 100 μl of 70% EtOH for 2-10 min followed by six washes with 200 μl sterile deionized H2O. […] After rinsing the plates with tap water, the plates were dried and spots were counted using a light microscope. […]

The subject of data set [4] is IL-13 producing PBMC. Description: IL-13 ELISpot assay. It counts as cell-based, human. Particulars: for IL-13 production in response to NiCl2 (ELISpot): 50 μM NiCl2, FIG. 1.
Excerpt: as §1, §2, §4, §5

The subject of data set [5] is IFN-γ producing PBMC. Description: IFN-γ ELISpot assay. The format is cell-based, human. Particulars: Kathon stimulation, spontaneous spots subtracted; allergic individuals, one line per patient. The procedure: Peripheral blood mononuclear cells (PBMC) were obtained from Kathon (methylisothiazolinone) allergy patients or control individuals as described in Example 2.
The PBMC were stimulated with Kathon (methylisothiazolinone) and cytokine responses were analysed.
as §3
Ninetysix-well plates with polyvinylidene difluoride membranes (MAIPS45-10, Millipore) were treated with 100 μl of 70% EtOH for 2-10 min followed by six washes with 200 μl sterile deionized H2O. To each well, 100 μl of capture mAb at a concentration of 15 μg/ml in phosphate-buffered saline (PBS) was added and incubated over night at +4° C. The plates were washed three times with 200 μl or sterile PBS and three times with 200 μl medium containing 2% FCS. PBMC incubated for 4 h with or without stimuli in test tubes were suspended and 100 μl cell suspension (2×10^5 cells) was added to each well. After an additional incubation of 44 h, the wells were emptied and washed six times with 200 μl PBS. […] After rinsing the plates with tap water, the plates were dried and spots were counted using a light microscope.

The subject of data set [6] is PBMC. The data set is described as follows: Proliferative response of PBMC (stimulation index). It counts as cell-based, human. The following applies: one line per subject.
Excerpt: as §1
The PBMC were stimulated with various concentrations of NiCl2 and both proliferative responses and cytokine responses were analysed. NiCl2 at a stock concentration of 50 mM was mixed with medium and incubated for more than five minutes before being added to cells. PBMC diluted to a cell concentration of 4-6×10^6 cells/ml were mixed with an equal volume of NiCl2 diluted in medium resulting in a final concentration of 2×10^6 cells/ml and NiCl2 at concentrations ranging from 10-100 μM. The cell suspensions were incubated in plastic vials for 4 h at 37° C. in a humidified incubator. […]

Setting [7] is: Kathon stimulation, spontaneous spots subtracted, allergic individuals, one line per patient.
The mark [8] stands for this setting: PBMC from allergic individuals (n=8).
The mark [9] stands for this setting: PBMC from non-allergic individuals (n=7).

In the case of `Cn1sccc1=O` [Kathon, methylisothiazolinone], the Patch test response entry in data set [1] (Kathon (methylisothiazolinone), non-allergic controls) was “None of the controls responded positively”. The “Number of responding cells (spots) per 200,000 cells, IL-4” value in data set [2] (setting [7]) is 14 spots per 200,000 cells and 21 spots per 200,000 cells and 0 spots per 200,000 cells and 3 spots per 200,000 cells. Moreover, in data set [3] (setting [7]), the “Number of responding cells (spots) per 200,000 cells, IL-5” value is 3 spots per 200,000 cells and 5 spots per 200,000 cells and 0 spots per 200,000 cells and 2 spots per 200,000 cells. In data set [4] (setting [7]), the “Number of responding cells (spots) per 200,000 cells, IL-13” value was 51 spots per 200,000 cells and 50 spots per 200,000 cells and 0 spots per 200,000 cells and 19 spots per 200,000 cells. Further, in data set [5], the “Number of responding cells (spots) per 200,000 cells, IFN-gamma” value is 39 spots per 200,000 cells and 113 spots per 200,000 cells and 0 spots per 200,000 cells and 21 spots per 200,000 cells.
With `[Cl][Ni][Cl]` [NiCl2], the “Proliferation (SI) (50 μM NiCl2)” value in data set [6] (PBMC of allergic group) was “higher in the group of allergic individuals and 15.9 and 8.4 and 15.4 and 16.2 and 11.8 and 24.9 and 11.0 and 31.6 and 44.8 and 10.1 and 92.2”; in data set [6] (PBMC of non-allergic group), 3.1 (2×) and 0.9 and 1.2 and 2.0 and 3.3 and 6.8 and 5.1 and 8.2. For the same compound, the “IL-4 ELISpot mean values, allergic versus non-allergic group” value in data set [2] (10 μM NiCl2, data not shown) was “higher mean values for the allergic group”. The “IL-4 producing cells/200 000 PBMC after stimulation with 50 μM NiCl2” value in data set [2] (allergic group) is 137 cells/200 000 PBMC and 48 cells/200 000 PBMC and 19 cells/200 000 PBMC and 26 cells/200 000 PBMC and 127 cells/200 000 PBMC and 27 cells/200 000 PBMC and 60 cells/200 000 PBMC and 9 cells/200 000 PBMC and 8 cells/200 000 PBMC and 13 cells/200 000 PBMC and 23 cells/200 000 PBMC; in data set [2] (non-allergic group) it was 3 cells/200 000 PBMC (2×) and 4 cells/200 000 PBMC (2×) and 9 cells/200 000 PBMC and 7 cells/200 000 PBMC and 1 cells/200 000 PBMC and 2 cells/200 000 PBMC (2×). The “IL-4 producing cells/200 000 PBMC, 50-0” value in data set [2] (allergic group) is 134 cells/200 000 PBMC and 47 cells/200 000 PBMC and 17 cells/200 000 PBMC and 21 cells/200 000 PBMC (2×) and 118 cells/200 000 PBMC and 25 cells/200 000 PBMC and 55 cells/200 000 PBMC and 5 cells/200 000 PBMC and 7 cells/200 000 PBMC and 12 cells/200 000 PBMC; in data set [2] (non-allergic group) it was 1 cells/200 000 PBMC and 2 cells/200 000 PBMC and 4 cells/200 000 PBMC and 0 cells/200 000 PBMC (6×). Moreover, the “IL-4 producing cells/200 000 PBMC after stimulation with 100 μM NiCl2” value was 21 cells/200 000 PBMC and 28 cells/200 000 PBMC (2×) and 122 cells/200 000 PBMC and 30 cells/200 000 PBMC and 63 cells/200 000 PBMC and 16 cells/200 000 PBMC and 18 cells/200 000 PBMC and 24 cells/200 000 PBMC in data set [2] (allergic group); 5 cells/200 000 PBMC and 8 cells/200 000 PBMC (2×) and 4 cells/200 000 PBMC (2×) and 14 cells/200 000 PBMC and 1 cells/200 000 PBMC and 6 cells/200 000 PBMC in data set [2] (non-allergic group). Moreover, the “IL-4 producing cells/200 000 PBMC, 100-0” value is 19 cells/200 000 PBMC and 23 cells/200 000 PBMC (2×) and 113 cells/200 000 PBMC and 28 cells/200 000 PBMC and 58 cells/200 000 PBMC and 12 cells/200 000 PBMC and 17 cells/200 000 PBMC and 25 cells/200 000 PBMC in data set [2] (allergic group); 3 cells/200 000 PBMC (2×) and 1 cells/200 000 PBMC (2×) and 5 cells/200 000 PBMC and 2 cells/200 000 PBMC and 0 cells/200 000 PBMC and 4 cells/200 000 PBMC in data set [2] (non-allergic group). For the same compound, the figures for the “IL-5 production in response to NiCl2 (ELISpot)” value in data set [3] (setting [8]) and in data set [3] (setting [9]) were “shown to produce” and “this was not seen”, respectively. In addition, the “IL-13 production in response to NiCl2 (ELISpot)” value in data set [4] (setting [8]) was “shown to produce”; in data set [4] (setting [9]) it was “this was not seen”.
For `O=S(=O)([O-])[O-].[Ni+2]` [NiSO4], the Patch test reactivity result in data set [1] (5% NiSO4 in petrolatum, non-allergic group, one line per subject) is “None of the controls responded positively”.
